Test results published in the NIST ThermoML archive (doi:10.1016/j.fluid.2006.12.010).
± gives the expanded uncertainty stated by the source.

Tests used:
[1] = for mass density: 101.33 kPa
[2] = refractive index (Na D-line) (dimensionless); conditions: 101.33 kPa, Liquid, Standard Abbe refractometry

SMILES	mass density ([1]; 298.15 K, Liquid) [kg/m3]	refractive index ([2]; 298.15 K)	mass density ([1]; 293.15 K, Liquid) [kg/m3]	refractive index ([2]; 293.15 K)	further results
Cc1ccccc1O [2-methylphenol]	1046 ± 1.8	1.5467 ± 0.0008	–	–	vapor or sublimation pressure ([1]; 463.55 K, Liquid): 94.95 ± 5 kPa
Cc1cccc(O)c1 [3-methylphenol]	1030 ± 1.8	1.5395 ± 0.0008	–	–	vapor or sublimation pressure ([1]; 473.55 K, Liquid): 94.95 ± 5 kPa
Cc1ccc(O)cc1 [4-methylphenol]	–	1.5391 ± 0.0008	–	–	mass density ([1]; 298.15 K, Crystal): 1154 ± 2.1 kg/m3; vapor or sublimation pressure ([1]; 475.35 K, Liquid): 94.95 ± 5 kPa
Brc1ccccc1 [bromobenzene]	–	–	1488.2 ± 2.8	1.5571 ± 0.0008	vapor or sublimation pressure ([1]; 426.85 K, Liquid): 94.95 ± 5 kPa
CN(C)C=O [dimethylformamide]	–	–	948.7 ± 1.6	1.4305 ± 0.0008	vapor or sublimation pressure ([1]; 424.15 K, Liquid): 94.95 ± 5 kPa
O=[N+]([O-])c1ccccc1 [nitrobenzene]	1198 ± 2.2	1.55 ± 0.0008	–	–	vapor or sublimation pressure ([1]; 481.15 K, Liquid): 94.95 ± 5 kPa
